Legend:
[1] = tested on: normal mouse kidney and liver; test: Immunohistochemical staining of normal kidney and liver; type: in vivo; settings: mice harbored with human Burkitt's lymphoma
Description: (§1) These normal kidney and liver tissues were obtained from mice harbored with human Burkitt's lymphoma.

[2] = tested on: mouse kidney; test: Kidney histopathology (hematoxylin and eosin); type: in vivo; settings: normal kidney of mice implanted with kidney tumors
[3] = tested on: PARP, Caspase 9 and p53 in Caki-1 cells; test: Western blot of apoptosis related proteins; type: cell-based, human
Description: Results also confirm elevated expression of p53 (a tumor suppressor) in human kidney cancer Caki cells (see panel D in FIG. 9).

[4] = tested on: Caki-1; test: Renal cancer cell growth IC50 (crystal violet); type: cell-based, human; settings: Example 11
Description: Exemplary Embodiments are generally performed as follows, unless otherwise noted. Simvastatin is purchased from Ark Pharm, Inc. (Arlington Heights, IL). Cisplatin (CIS) is purchased from MedKoo Biosciences, Inc. (Chapel Hill, NC). Dihydroartemisinin is purchased from TCI America (Portland, OR). All other chemicals and reagents are purchased from standard sources such as Sigma-Aldrich and/or VWR and are of highest quality available. Puromycin dihydrochloride was purchased from Alfa Aesar (Tewksbury, MA). Deionized water ([…]) used for making solutions is obtained from Milli-Q Direct Ultrapure Water System from Millipore (Billerica, MA, USA). All intermediates are characterized by 1H NMR and mass analysis and the purity of compounds are analyzed by HPLC. 1H NMR data are collected on Bruker 400 MHz spectrometers using standard parameters; chemical shifts are reported in ppm (δ) in reference to residual non-deuterated solvent. ESI mass spectroscopy analysis is performed using a Thermo Fisher LTQ Orbitrap Elite system. IC50 is the half maximal inhibitory concentration and determined is determined by crystal violet assay unless otherwise noted.
(§2) The crystal violet assay is performed as follows, unless otherwise noted. Cell lines are supplemented with RPMI 1640 medium, 10% fetal bovine serum, 1% PenStrep, and placed in a humidified atmosphere containing 5% CO2 at 37° C. 5,000 cells/well renal cancer cells and 10,000 cells/well lymphoma cells are seeded in 96 well plates in 100 microliter medium/per well for 24 h. […] Renal cancer cells are fixed with 3.7% paraformaldehyde for 15 minutes and are stained with Crystal violet solution (0.5% in 25% methanol) for 30 minutes. After rinsing with water cell layers are dried and decolorized with Sorenson citrate with shaking for 20 minutes. Light absorption of the extracted supernatant is read at 595 nm. Lymphoma cell growth was evaluated using MTT and cells are incubated for 4 hours. 100 microliters of isopropanol is added, and the extracted supernatant fraction is read at absorption maximum of 595 nm.
Standard cell culture conditions typically are RPMI 1640 medium, 10% fetal bovine serum, 1% PenStrep, and are performed in a humidified atmosphere containing 5% CO2 at 37° C. Generally, 5,000 cells/well-10,000 cells/well are seeded in 96 well plates in 100 microliter medium/per well for 24 h, or as described in Example 16, unless otherwise noted. Certain cells require specialized media, growth factors, antibiotics, or culture condition adjustments, as will be apparent to a person of ordinary skill in the art.
as §2, with “Cell” for “The crystal violet assay is performed as follows, unless otherwise noted. Cell”, “cultured as follows. […]” for “supplemented with RPMI 1640 medium, 10% fetal bovine serum, 1% PenStrep, and placed in a humidified atmosphere containing 5% CO2 at 37° C.”, “is” for “was”

[5] = tested on: Namalwa human lymphoma xenograft tumors; test: Immunohistochemical staining of xenograft tumors; type: in vivo; settings: Namalwa xenograft tumors of mice
Description: as §1

[6] = tested on: caspase-3 and-7 activities in Caki-1 cells; test: CaspaseGlo 3/7 luminescent apoptosis assay; type: cell-based, human; settings: 24 hours after treatment
Description: Caspase-Glo® 3/7 Assay (Promega) is a homogeneous, luminescent assay that measures caspase-3 and-7 activities that provides a luminogenic caspase-3/7 substrate, which contains the tetrapeptide sequence DEVD, in a reagent optimized for caspase activity, luciferase activity and cell lysis. A single Caspase-Glo 3/7 Reagent in an “add-mix measure” format results in cell lysis, followed by caspase cleavage of the substrate and generation of a “glow-type” luminescent signal, produced by luciferase. Luminescence is proportional to the amount of caspase activity present. Caspase-Glo® 3/7 Reagent is prepared, mixed and the reagent and the 96-well plate containing cells are equilibrated to room temperature. […] The plate is incubated at room temperature for 30 minutes to 3 hours, depending upon the cell culture system (optimal incubation period determined empirically). Luminescence of each sample is measured in a plate-reading luminometer. […]
B-cell lymphoma cells (Namalwa) are cultured in RPMI 1640, 10% fetal bovine serum, 1% PenStrep, and placed in a humidified atmosphere containing 5% CO2 at 37° C. […] 100 microliters of Caspase-Glo 3/7 assay is added and luminescence is then read. […] 100 microliters of Caspase-Glo 3/7 assay is added and luminescence is then read.

In the case of CC1(C)C(/C=C/C2=C(Cl)C(=C/C=C3/N(CCCCCC(=O)[O][Pt]([NH2])([NH2])([OH])([Cl])[Cl])c4ccccc4C3(C)C)/CCC2)=[N+](CCCCS(=O)(=O)[O-])c2ccccc21 [DZ-CIS ester], the “Apoptosis markers (cleaved caspas-3 and M30) / damage in normal kidney and liver” value [1] was “protects normal kidney and liver from damage by CIS”, the “Kidney damage, histopathology” value [2] was “protects from more severe kidney damage” and the “Expression of apoptosis related proteins PARP, Caspase 9 and p53” value [3] was “induces elevation of apoptosis related proteins”. The “In vitro growth of Caki-1” value [4] was “inhibited by DZ-CIS”, the “Apoptosis in xenograft tumors (cleaved caspase-3 and M30)” value [5] was “increased apoptosis” and the “Cell proliferation in xenograft tumors (Ki67)” value [5] was “decreased cell proliferation”. The “Level of apoptosis, CaspaseGlo 3/7” value [6] was “increased apoptosis”.
